# What was measured:
# Assay type in all cases: functional
# [1] = test system: Enterococcus faecalis; test: Antibacterial activity against Enterococcus faecalis ATCC 51575
# [2] = test system: Staphylococcus epidermidis; test: Antibacterial activity against Staphylococcus epidermidis ATCC 12228
# [3] = test system: Haemophilus influenzae; test: Antibacterial activity against Haemophilus influenzae ATCC 9006
# [4] = test system: Staphylococcus aureus; test: Antibacterial activity against macrolide resistant Staphylococcus aureus ATCC BAA-39
# [5] = test system: Staphylococcus aureus; test: Antibacterial activity against macrolide resistant Staphylococcus aureus ATCC BAA-44
# [6] = test system: Streptococcus pneumoniae; test: Antibacterial activity against macrolide resistant Streptococcus pneumoniae ATCC 700906
# [7] = test system: Staphylococcus aureus; test: Antibacterial activity against Staphylococcus aureus ATCC 6538p
# [8] = test system: Streptococcus pneumoniae; test: Antibacterial activity against macrolide resistant Streptococcus pneumoniae ATCC 700677
# [9] = test system: Streptococcus pneumoniae; test: Antibacterial activity against Streptococcus pneumoniae ATCC 6301
# [10] = test system: Streptococcus pneumoniae; test: Antibacterial activity against Streptococcus pneumoniae ATCC 49619
# [11] = test system: Streptococcus pneumoniae; test: Antibacterial activity against macrolide resistant Streptococcus pneumoniae ATCC 700676
# [12] = test system: Staphylococcus aureus; test: Antibacterial activity against macrolide resistant Staphylococcus aureus ATCC 141541
# [13] = test system: Staphylococcus aureus; test: Antibacterial activity against macrolide resistant Staphylococcus aureus ATCC 33591
# [14] = test system: Streptococcus pneumoniae; test: Antibacterial activity against macrolide resistant Streptococcus pneumoniae ATCC 700905
# [15] = test system: Streptococcus pneumoniae; test: Antibacterial activity against Streptococcus pneumoniae ATCC 700671
# [16] = test system: Haemophilus influenzae; test: Antibacterial activity against Haemophilus influenzae ATCC 49766
# [17] = test system: Staphylococcus aureus; test: Antibacterial activity against Staphylococcus aureus ATCC 29213
# [18] = test system: Haemophilus influenzae; test: Antibacterial activity against Haemophilus influenzae EH003
# [19] = test system: Haemophilus influenzae; test: Antibacterial activity against Haemophilus influenzae EH001
# [20] = test system: Haemophilus influenzae; test: Antibacterial activity against Haemophilus influenzae EH002
Compound,MIC [1] [µg/mL],MIC [2] [µg/mL],MIC [3] [µg/mL],MIC [4] [µg/mL],MIC [5] [µg/mL],MIC [6] [µg/mL],MIC [7] [µg/mL],MIC [8] [µg/mL],MIC [9] [µg/mL],MIC [10] [µg/mL],MIC [11] [µg/mL],MIC [12] [µg/mL],MIC [13] [µg/mL],MIC [14] [µg/mL],MIC [15] [µg/mL],MIC [16] [µg/mL],MIC [17] [µg/mL],MIC [18] [µg/mL],MIC [19] [µg/mL],MIC [20] [µg/mL]
CC[C@H]1OC(=O)C[C@@H](O)[C@H](C)[C@@H](O[C@@H]2O[C@H](C)[C@@H](O)[C@H](N(C)C)[C@H]2O)[C@@H](CC=O)C[C@@H](C)C(=N/OCCCCc2cnc3ccccc3c2)/C=C/C(C)=C/C1CO (some centres undefined),> 12.5,0.2,6.25,> 12.5,> 12.5,> 12.5,0.025,0.025,0.025,0.049,0.025,0.2,> 12.5,0.025,0.025,6.25,0.2,,,
CC[C@H]1OC(=O)C[C@@H](O)[C@H](C)[C@@H](O[C@@H]2O[C@H](C)[C@@H](O)[C@H](N(C)C)[C@H]2O)[C@@H](CCN2CC(C)CC(C)C2)C[C@@H](C)C(=N/OCCCc2ccc3ncccc3c2)/C=C/C(C)=C/C1CO (some centres undefined),,,1.56,,,> 12.5,,> 12.5,0.025,0.025,0.025,,,0.025,0.049,3.12,,1.56,3.12,3.12
CC[C@H]1OC(=O)C[C@@H](O)[C@H](C)[C@@H](O[C@@H]2O[C@H](C)[C@@H](O)[C@H](N(C)C)[C@H]2O)[C@@H](C=O)C[C@@H](C)C(=N\OCCCc2ccc3ncccc3c2)/C=C/C(C)=C/C1CO (some centres undefined),,,1.56,,,> 12.5,,> 12.5,0.025,0.025,0.025,,,0.025,0.098,3.12,,3.12,3.12,6.25
CC[C@H]1OC(=O)C[C@@H](O)[C@H](C)[C@@H](O[C@@H]2O[C@H](C)[C@@H](O)[C@H](N(C)C)[C@H]2O)[C@@H](CC=O)C[C@@H](C)C(=N\OCCCOc2ccc3ncccc3c2)/C=C/C(C)=C/C1CO (some centres undefined),> 12.5,0.098,6.25,> 12.5,> 12.5,> 12.5,0.025,0.2,0.025,0.01,0.025,0.2,> 12.5,0.025,0.025,6.25,0.098,,,
CC[C@H]1OC(=O)C[C@@H](O)[C@H](C)[C@@H](O[C@@H]2O[C@H](C)[C@@H](O)[C@H](N(C)C)[C@H]2O)[C@@H](CC=O)C[C@@H](C)C(=O)/C=C/C(C)=C/C1CO (some centres undefined),> 12.5,0.39,1.56,> 12.5,> 12.5,> 12.5,0.39,6.25,0.025,0.098,0.78,1.56,> 12.5,0.78,0.049,1.56,0.78,1.56,3.12,6.25
CC[C@H]1OC(=O)[C@H](C)[C@@H](O[C@H]2C[C@@](C)(OC)[C@@H](O)[C@H](C)O2)[C@H](C)[C@@H](O[C@@H]2O[C@H](C)C[C@H](N(C)C)[C@H]2O)[C@](C)(O)C[C@@H](C)C(=O)[C@H](C)[C@@H](O)[C@]1(C)O [ERYTHROMYCIN],> 12.5,0.2,1.56,> 12.5,> 12.5,> 12.5,0.098,6.25,0.025,0.049,6.25,,> 12.5,3.12,0.049,6.25,0.2,3.12,3.12,6.25
CC[C@H]1OC(=O)[C@H](C)C(=O)[C@H](C)[C@@H](O[C@@H]2O[C@H](C)C[C@H](N(C)C)[C@H]2O)[C@](C)(OC)C[C@@H](C)C(=O)[C@H](C)[C@H]2N(CCCCn3cnc(-c4cccnc4)c3)C(=O)O[C@]12C [TELITHROMYCIN],,,1.56,,,0.2,,0.025,0.025,0.049,0.098,,,0.025,0.025,3.12,,1.56,1.56,6.25
